Measured values taken from US4935424A, “4 or 5-(substituted piperazinylalkyl)-2-aminothiazoles as antipsychotic agents” (priority 1988, dated 1990).
Read-outs that look alike come from different tables or passages of the source.

How the values were obtained:
haloperidol binding = biological target: T1, haloperidol binding (Bos taurus, UniProt P20288); assay: Inhibition of haloperidol binding in a receptor binding assay; conditions: for inhibition at 10 µM: at 10,000 nM
T1 construct: from tissue
T1 sequence (P20288 whole entry): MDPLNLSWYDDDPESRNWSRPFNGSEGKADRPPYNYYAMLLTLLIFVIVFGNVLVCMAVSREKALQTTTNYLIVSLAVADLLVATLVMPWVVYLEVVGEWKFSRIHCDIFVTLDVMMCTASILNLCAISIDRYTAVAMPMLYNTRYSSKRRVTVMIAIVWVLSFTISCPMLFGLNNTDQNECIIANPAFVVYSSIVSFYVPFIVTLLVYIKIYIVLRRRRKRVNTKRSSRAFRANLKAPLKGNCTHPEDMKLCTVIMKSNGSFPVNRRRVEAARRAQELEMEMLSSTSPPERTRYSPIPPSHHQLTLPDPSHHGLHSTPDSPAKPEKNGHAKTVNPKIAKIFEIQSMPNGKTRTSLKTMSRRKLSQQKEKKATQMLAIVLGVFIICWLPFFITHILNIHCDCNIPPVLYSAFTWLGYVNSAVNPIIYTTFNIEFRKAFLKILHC
Protocol: (§1) Thus, the compounds of Formula I were tested for their ability to inhibit locomotor activity in mice according to the assay described in Pharmacol. Biochem. Behav. 1978 (8) 97; for their ability to inhibit haloperidol binding in a receptor binding assay described in Mol. Pharmacol. 1976 (12), 800; for their ability to inhibit brain dopamine synthesis in rats according to the protocol described in Naumyn-Schmiedeberg's Arch. Pharmacol., 1976 (296) 5; and for their ability to inhibit dopamine neuron firing in rats according to the protocol described in Nature New Biology, 1973 (245) 123.

[1] = tested on: locomotor activity in mice; assay: Inhibition of locomotor activity in mice; type: in vivo; conditions: Mus musculus, IP
Protocol: as §1

brain dopamine synthesis = assay: Inhibition of brain dopamine synthesis in rats; type: in vivo; conditions: Rattus norvegicus, IP
Protocol: as §1

dopamine neuron firing = assay: Inhibition of dopamine neuron firing in rats; type: in vivo; conditions: IP
Protocol: as §1

[2] = read-out: Inhibition of Haloperidol Binding (IC50 nM)

Structure (SMILES)	IC50 (haloperidol binding; [2])	ED50 [1]	inhibition in vivo at 10 mg/kg (brain dopamine synthesis)	Inhibition of Dopamine Neuron Firing in Rats (dopamine neuron firing; 2.5 mg/kg)	inhibition in vivo at 1 mg/kg (brain dopamine synthesis)	inhibition at 10 µM (haloperidol binding)	Inhibition of Dopamine Neuron Firing in Rats (dopamine neuron firing; 10 mg/kg)	IC50 (haloperidol binding)
Cc1nc(N)sc1CCCN1CCN(c2ccccn2)CC1 [Example 1j, 4-Methyl-5-[3-[4-(2-pyridinyl)-1-piperazinyl]propyl]-2-thiazolamine]	249 nM	4.6 mg/kg	100%	98%	–	–	–	–
Cc1nc(N)sc1CCN1CCN(c2ccccn2)CC1 [Example 1h, 4-Methyl-5-[2-[4-(2-pyridinyl)-1-piperazinyl]ethyl]-2-thiazolamine]	75 nM	1.4 mg/kg	–	100%	87%	–	–	–
Nc1ncc(CCN2CCN(c3ccccc3)CC2)s1 [Example 2a, 5-[2-(4-Phenyl-1-piperazinyl)ethyl]-2-thiazolamine]	–	2.6 mg/kg	–	–	–	–	–	–
Cc1nc(N)sc1CCN1CCN(c2ccccc2)CC1 [Example 1b, 4-Methyl-5-[2-(4-phenyl-1-piperazinyl)ethyl]-2-thiazolamine]	–	1.5 mg/kg	–	–	–	100%	80%	–
Nc1nc(CCCN2CCN(c3ncccn3)CC2)cs1 [Example 1g, 4-[3-[4-(2-Pyrimidinyl)-1-piperazinyl]-propyl]-2-thiazolamine]	1600 nM	> 30 mg/kg	–	–	–	–	–	–
Nc1nc(CCCN2CCN(c3ccccc3)CC2)cs1 [Example 1c, 4-[3-(4-Phenyl-1-piperazinyl)propyl]-2-thiazolamine]	–	2.4 mg/kg	–	–	–	40%	–	–
Cl.Cl.Nc1nc(CCCN2CC=C(c3ccccc3)CC2)cs1 [Example 1e, 4-[3-(3,6-Dihydro-4-phenyl-1(2H)-pyridinyl)propyl]-2-thiazolamine, dihydrochloride]	–	1.7 mg/kg	44%	78%	–	–	–	346 nM
Nc1nc(CCCCN2CCN(c3ccccn3)CC2)cs1 [Example 1k, 4-[4-[4-(2-Pyridinyl)-1-piperazinyl]-butyl]-2-thiazolamine]	488 nM	5.5 mg/kg	63%	–	–	–	–	–
Nc1ncc(CCN2CC=C(c3ccccc3)CC2)s1 [Example 2b, 5-[2-(3,6-Dihydro-4-phenyl-1(2H)-pyridinyl)ethyl]-2-thiazolamine]	–	0.47 mg/kg	25%	–	–	–	–	–
Nc1nc(CCCCN2CCN(c3ncccn3)CC2)cs1 [Example 1a, 4-[4-[4-(2-Pyrimidinyl)-1-piperazinyl]butyl]-2-thiazolamine]	1060 nM	> 30 mg/kg	–	–	–	–	–	–
Cc1nc(N)sc1CCN1CCN(c2ncccn2)CC1 [Example 1f, 4-Methyl-5-[2-[4-(2-pyrimidinyl)-1-piperazinyl]ethyl]-2-thiazolamine]	118 nM	1.4 mg/kg	–	–	–	–	–	–
Cc1nc(N)sc1CCN1CC=C(c2ccccc2)CC1 [Example 1d, 5-[2-(3,6-dihydro-4-phenyl-1(2H)-pyridinyl)ethyl]-4-methyl-2-thiazolamine]	400 nM	0.88 mg/kg	84%	70%	–	–	–	–
Nc1nc(CCCN2CCN(c3ccccn3)CC2)cs1 [Example 1i, 4-[3-[4-(2-Pyridinyl)-1-piperazinyl]-propyl]-2-thiazolamine]	–	7.6 mg/kg	43%	–	–	100%	–	–
Cc1nc(N)sc1CCCN1CCN(c2ncccn2)CC1 [Example 1, 4-Methyl-5-[3-[4-(2-pyrimidinyl)-1-piperazinyl]-propyl]-2-thiazolamine]	370 nM	6.3 mg/kg	–	90%	82%	–	–	–
Nc1ncc(CCN2CCN(c3ccccn3)CC2)s1 [Example 2, 5-[2-[4-(2-pyridinyl)-1-piperazinyl]ethyl]-2-thiazolamine]	–	5.9 mg/kg	92%	–	–	–	–	–
